# Data from paper PMC8428568, “Discovery of re-purposed drugs that slow SARS-CoV-2 replication in human cells” (PLoS Pathogens, 2021).
# pIC50: −log10 of the molar value. Where a name gives a salt, the structure may show the parent alone. Read-outs that look alike come from different tables or passages of the source.
# How the values were obtained:
# [1] = tested on: SARS-CoV-2-ΔOrf7a-NLuc virus; assay: Post-infection treatment: Vero cells infected 24 hrs with SARS-CoV-2-ΔOrf7a-NLuc, then compound for 48 hrs, bioluminescence; type: cell-based; settings: change in replication relative to DMSO; cells infected 24 hrs, then treated 48 hrs
# [2] = tested on: SARS-CoV-2-ΔOrf7a-NLuc virus; assay: microbe, parasite or virus in culture; type: cell-based; settings: for Mean relative luminescence (n=4): HUH7 screen; for pIC50: read-out: HUH7 IC50
# recombinant NLuc = type: biochemical; settings: for Relative Recombinant NLUC: recombinant NLuc activity relative to DMSO; for Reads Counts per second (read 1) / Reads Counts per second (read 4) / Reads Counts per second (read 3) / Reads Counts per second (read 2): recombinant NLuc; for Reads Counts per second (read 1): first read column; for Reads Counts per second (read 4): fourth read column; for Reads Counts per second (read 3): third read column
# HUH7 cells = settings: HUH7 screen
# [3] = tested on: SARS-CoV-2-ΔOrf7a-NLuc virus; assay: microbe, parasite or virus in culture; type: cell-based; settings: for activity at 10 µM: Severe acute respiratory syndrome coronavirus 2, Vero, 72 h, read-out: Mean relative luminescence (n=4); for pIC50: Severe acute respiratory syndrome coronavirus 2, Vero cells
# [4] = Vero cells, 10 μM, 1 = DMSO-treated infected cells
# [5] = Severe acute respiratory syndrome coronavirus 2, Huh-7
# [6] = 1 = untreated, 0 = total inhibition
# [7] = Vero screen, relative luminescence
Compound,Post-infection at IC50 [1],PrestoBlue relative viability (Vero cells; [4]),PrestoBlue relative viability (Vero cells; Vero screen),Mean relative luminescence (n=4) [2],"pIC50 [2, 5]",Relative Recombinant NLUC (recombinant NLuc),Reads Counts per second (read 1) (recombinant NLuc),Reads Counts per second (read 4) (recombinant NLuc),Reads Counts per second (read 3) (recombinant NLuc),PrestoBlue relative viability (HUH7 cells),% activity in Vero 100PFU screen [3],"activity at 10 µM [3, 6]",pIC50 [3],"Mean relative luminescence (n=4) [3, 7]",pIC50 [2],"Mean relative luminescence (n=4) [3, 6]",Reads Counts per second (read 2) (recombinant NLuc)
COC(=O)C1=C(C)NC(C)=C(C(=O)OCCN2CCN(C(c3ccccc3)c3ccccc3)CC2)C1c1cccc([N+](=O)[O-])c1 (stereo not drawn) [Manidipine],-50%,1.036,1.036,0.1,5.70,0.6615,249924 Counts per second,251205 Counts per second,250350 Counts per second,0.5396,12%,10.9%,5.12,0.1086,,,
COC(=O)C1=C(C)NC(C)=C(C(=O)OCCN2CCN(C(c3ccccc3)c3ccccc3)CC2)C1c1cccc([N+](=O)[O-])c1.Cl.Cl (stereo not drawn) [Manidipine 2HCl],-50%,0.813,0.813,0.04447,,0.6382,242466 Counts per second,239469 Counts per second,242968 Counts per second,0.5726,12%,,,0.1096,5.60,0.1096,
"CCN(CC)Cc1cc(Nc2ccnc3cc(Cl)ccc23)ccc1O [Amodiaquine, Amodiaquine dihydrochloride dihydrate]",-25%,0.6404,0.6404,0.01258,6.00,0.9146,351271 Counts per second,339282 Counts per second,344113 Counts per second,0.7783,12%,10.1%,5.30,0.1007,,,347518 Counts per second
O=C1C(O)=C([C@H]2CC[C@H](c3ccc(Cl)cc3)CC2)C(=O)c2ccccc21 [Atovaquone],-25%,1.55,1.55,0.05824,5.12,0.5902,224278 Counts per second,216287 Counts per second,224646 Counts per second,1.15,4%,0.959%,5.52,0.009591,,,226697 Counts per second
